Experimental data: PubChem BioAssay AID330 (DTP/NCI, 2004)
“And” between values parts separate entries of the source, which are not always exact repeats. Equal entries are not always repeated. Inconclusive results and toxic doses are left out.

System: P388 leukemia ip, CD2F1 mice, survival T/C
Test: NCI In Vivo Anticancer Drug Screen. Data for tumor model P388 Leukemia (intraperitoneal) in CD2F1 (CDF1) mice
Settings: endpoint: median survival time, higher = longer survival
Method in brief: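 Mice carrying the transplanted tumor received test compound or vehicle. Survival was recorded in each group, and the value is the treated-group measurement divided by that of the vehicle-treated control group.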

[1] = dose: 100.0 mg/kg/injection, schedule: Q04DX003 (ip), vehicle: saline
[2] = dose: 50.0 mg/kg/injection, schedule: Q01DX009 (ip), vehicle: saline with Tween-80
[3] = dose: 100.0 mg/kg/injection, schedule: Q01DX009 (ip), vehicle: saline with Tween-80
[4] = dose: 200.0 mg/kg/injection, schedule: Q01DX009 (ip), vehicle: saline with Tween-80
[5] = dose: 100.0 mg/kg/injection, schedule: Q04DX003 (ip), vehicle: saline with Tween-80
[6] = dose: 200.0 mg/kg/injection, schedule: Q04DX003 (ip), vehicle: saline with Tween-80
[7] = dose: 400.0 mg/kg/injection, schedule: Q04DX003 (ip), vehicle: saline with Tween-80
[8] = dose: 60.0 mg/kg/injection, schedule: Q01DX005 (ip), vehicle: Klucel (hydroxypropylcellulose) (HPC)
[9] = dose: 120.0 mg/kg/injection, schedule: Q01DX005 (ip), vehicle: Klucel (hydroxypropylcellulose) (HPC)
[10] = dose: 240.0 mg/kg/injection, schedule: Q01DX005 (ip), vehicle: Klucel (hydroxypropylcellulose) (HPC)
[11] = dose: 100.0 mg/kg/injection, schedule: Q01DX009 (ip), vehicle: saline
[12] = dose: 200.0 mg/kg/injection, schedule: Q01DX009 (ip), vehicle: saline
[13] = dose: 50.0 mg/kg/injection, schedule: Q01DX005 (ip), vehicle: saline with Tween-80
[14] = dose: 100.0 mg/kg/injection, schedule: Q01DX005 (ip), vehicle: saline with Tween-80
[15] = dose: 200.0 mg/kg/injection, schedule: Q01DX005 (ip), vehicle: saline with Tween-80

Cc1c2cc[n+](C)cc2c(C)c2c1[nH]c1ccc(O)cc12
T/C (dose: 0.25 mg/kg/injection, schedule: Q04DX003 (ip), vehicle: water): 115 % of control | T/C (dose: 0.25 mg/kg/injection, schedule: Q04DX003 (iv), vehicle: water): 94 % of control | T/C (dose: 0.5 mg/kg/injection, schedule: Q04DX003 (iv), vehicle: water): 93 % of control | T/C (dose: 0.78 mg/kg/injection, schedule: Q04DX003 (ip), vehicle: saline): 152 % of control | T/C (dose: 1.0 mg/kg/injection, schedule: Q04DX003 (ip), vehicle: water): 151 % of control | T/C (dose: 1.0 mg/kg/injection, schedule: Q04DX003 (iv), vehicle: water): 100 % of control | T/C (dose: 1.56 mg/kg/injection, schedule: Q04DX003 (ip), vehicle: saline): 164 % of control | T/C (dose: 2.0 mg/kg/injection, schedule: Q04DX003 (ip), vehicle: water): 152 % of control and 161 % of control | T/C (dose: 2.0 mg/kg/injection, schedule: Q04DX003 (iv), vehicle: water): 111 % of control | T/C (dose: 3.12 mg/kg/injection, schedule: Q04DX003 (ip), vehicle: saline): 172 % of control | T/C (dose: 3.6 mg/kg/injection, schedule: Q04DX002 (ip), vehicle: saline): 176 % of control | T/C (dose: 4.0 mg/kg/injection, schedule: Q04DX003 (iv), vehicle: water): 99 % of control | T/C (dose: 4.5 mg/kg/injection, schedule: Q04DX002 (ip), vehicle: saline): 151 % of control | T/C (dose: 6.0 mg/kg/injection, schedule: Q04DX002 (ip), vehicle: saline): 188 % of control | T/C (dose: 6.25 mg/kg/injection, schedule: Q04DX003 (ip), vehicle: saline): 150 % of control | T/C (dose: 7.5 mg/kg/injection, schedule: Q04DX002 (ip), vehicle: saline): 94 % of control | T/C (dose: 12.5 mg/kg/injection, schedule: Q04DX003 (ip), vehicle: saline): 170 % of control | T/C (dose: 50.0 mg/kg/injection, schedule: Q04DX003 (ip), vehicle: saline): 93 % of control | T/C [1]: 94 % of control

O=S(=O)(O)Cc1ccc(CS(=O)(=O)O)cc1
T/C (dose: 12.5 mg/kg/injection, schedule: Q04DX002 (ip), vehicle: saline): 93 % of control | T/C (dose: 25.0 mg/kg/injection, schedule: Q04DX002 (ip), vehicle: saline): 102 % of control | T/C (dose: 50.0 mg/kg/injection, schedule: Q04DX002 (ip), vehicle: saline): 98 % of control

CN1C2=NCCN2S(=O)(=O)c2ccccc21
T/C (dose: 100.0 mg/kg/injection, schedule: Q01DX001 (ip), vehicle: saline with Tween-80): 101 % of control | T/C (dose: 200.0 mg/kg/injection, schedule: Q01DX001 (ip), vehicle: saline with Tween-80): 110 % of control | T/C (dose: 400.0 mg/kg/injection, schedule: Q01DX001 (ip), vehicle: saline with Tween-80): 92 % of control

COC(CN(C)CC(OC)OC)OC
T/C [1]: 95 % of control | T/C (dose: 200.0 mg/kg/injection, schedule: Q04DX003 (ip), vehicle: saline): 100 % of control | T/C (dose: 400.0 mg/kg/injection, schedule: Q04DX003 (ip), vehicle: saline): 100 % of control

COc1cc(C(=O)NN=C2c3ccccc3-c3ccccc32)cc(OC)c1OC
T/C [2]: 93 % of control | T/C [3]: 88 % of control | T/C [4]: 87 % of control

O=C(OCCO)c1ccccc1O
T/C [5]: 95 % of control | T/C [6]: 104 % of control | T/C [7]: 95 % of control

C=C1C(=O)OC2C1CC/C(C)=C/CCC1(C)OC21 (configuration not stated)
T/C (dose: 8.75 mg/kg/injection, schedule: Q01DX009 (ip), vehicle: Klucel (hydroxypropylcellulose) (HPC)): 106 % of control | T/C (dose: 17.5 mg/kg/injection, schedule: Q01DX009 (ip), vehicle: Klucel (hydroxypropylcellulose) (HPC)): 106 % of control

NNC(=O)c1cccc2ccccc12
T/C (dose: 3.12 mg/kg/injection, schedule: Q01DX005 (ip), vehicle: saline): 101 % of control | T/C (dose: 6.25 mg/kg/injection, schedule: Q01DX005 (ip), vehicle: saline): 104 % of control | T/C (dose: 12.5 mg/kg/injection, schedule: Q01DX005 (ip), vehicle: saline): 98 % of control

CCOc1c(N=Nc2ccc(Cl)cc2)c(C)nn1C(N)=S
T/C [8]: 112 % of control | T/C [9]: 112 % of control | T/C [10]: 112 % of control

CCc1nc(N)nc(N)c1-c1ccc(N2CCNCC2)cc1
T/C (dose: 50.0 mg/kg/injection, schedule: Q01DX005 (ip), vehicle: Klucel (hydroxypropylcellulose) (HPC)): 96 % of control | T/C (dose: 100.0 mg/kg/injection, schedule: Q01DX005 (ip), vehicle: Klucel (hydroxypropylcellulose) (HPC)): 95 % of control | T/C (dose: 200.0 mg/kg/injection, schedule: Q01DX005 (ip), vehicle: Klucel (hydroxypropylcellulose) (HPC)): 101 % of control

COc1ccc2[nH]c3c(c2c1)CNCC3
T/C [11]: 110 % of control | T/C [12]: 112 % of control

CCCCC(CCCC)[N+](=O)[O-]
T/C [13]: 108 % of control | T/C [14]: 110 % of control | T/C [15]: 103 % of control

Cc1c(Cl)cccc1NS(=O)(=O)c1ccccc1
T/C [5]: 104 % of control | T/C [6]: 104 % of control | T/C [7]: 90 % of control

COC(=O)CCCN1CC2C=C(C#N)C1C(C(=O)OC)C2 (configuration not stated)
T/C (dose: 60.0 mg/kg/injection, schedule: Q01DX005 (ip), vehicle: saline): 98 % of control | T/C (dose: 120.0 mg/kg/injection, schedule: Q01DX005 (ip), vehicle: saline): 96 % of control

COC(=O)c1nnn(-c2ccc(Cl)cc2C)c1C(=O)c1ccc(OC)cc1
T/C (dose: 60.0 mg/kg/injection, schedule: Q01DX005 (ip), vehicle: Klucel + Tween-80): 102 % of control | T/C (dose: 120.0 mg/kg/injection, schedule: Q01DX005 (ip), vehicle: Klucel + Tween-80): 108 % of control | T/C (dose: 240.0 mg/kg/injection, schedule: Q01DX005 (ip), vehicle: Klucel + Tween-80): 93 % of control

CCOC(=O)CNc1c2ccc(Cl)cc2nc2ccc(OC)cc12
T/C (dose: 6.25 mg/kg/injection, schedule: Q01DX009 (ip), vehicle: saline with Tween-80): 97 % of control | T/C (dose: 12.5 mg/kg/injection, schedule: Q01DX009 (ip), vehicle: saline with Tween-80): 104 % of control | T/C (dose: 25.0 mg/kg/injection, schedule: Q01DX009 (ip), vehicle: saline with Tween-80): 111 % of control | T/C [2]: 108 % of control | T/C [3]: 104 % of control

O=c1ccocc1CN1CCCCC1
T/C (dose: 50.0 mg/kg/injection, schedule: Q01DX009 (ip), vehicle: saline): 100 % of control | T/C [11]: 99 % of control | T/C [12]: 99 % of control

C/C=C\C(/C=C/C)(C(=O)OCCN(C)C)C(/C=C\C)(/C=C/C)C(=O)OCCN(C)C (configuration not stated)
T/C [13]: 100 % of control | T/C [14]: 100 % of control | T/C [15]: 91 % of control

O=C(c1ccccc1)C1Nc2ccccc2CO1 (configuration not stated)
T/C [8]: 99 % of control | T/C [9]: 107 % of control | T/C [10]: 97 % of control

COC(=O)CCc1cc(=O)oc2c3c(cc(OC)c12)OC1OC(=O)CC31 (configuration not stated)
T/C (dose: 8.75 mg/kg/injection, schedule: Q01DX005 (ip), vehicle: Klucel (hydroxypropylcellulose) (HPC)): 90 % of control | T/C (dose: 17.5 mg/kg/injection, schedule: Q01DX005 (ip), vehicle: Klucel (hydroxypropylcellulose) (HPC)): 95 % of control | T/C (dose: 35.0 mg/kg/injection, schedule: Q01DX005 (ip), vehicle: Klucel (hydroxypropylcellulose) (HPC)): 90 % of control

CC(C)CCC[C@@H](C)[C@H]1CC[C@H]2[C@@H]3CCC(=O)[C@](C)(CCC(=O)O)[C@H]3CC[C@]12C
T/C (dose: 6.25 mg/kg/injection, schedule: Q01DX009 (ip), vehicle: Klucel (hydroxypropylcellulose) (HPC)): 96 % of control | T/C (dose: 12.5 mg/kg/injection, schedule: Q01DX009 (ip), vehicle: Klucel (hydroxypropylcellulose) (HPC)): 96 % of control | T/C (dose: 25.0 mg/kg/injection, schedule: Q01DX009 (ip), vehicle: Klucel (hydroxypropylcellulose) (HPC)): 92 % of control | T/C (dose: 50.0 mg/kg/injection, schedule: Q01DX009 (ip), vehicle: Klucel (hydroxypropylcellulose) (HPC)): 87 % of control

Cc1c([N+](=O)[O-])ccn1C
T/C [2]: 98 % of control | T/C [3]: 105 % of control | T/C [4]: 97 % of control
